Experimental data from patent US20090306207A1, “Treatment of Drug-Resistant Proliferative Disorders” (priority 2005, published 2009).

Key:
[1] = test system: 32Dcl3 cells expressing BCR-ABL H396R; experiment: Cell viability (trypan blue exclusion), BCR-ABL H396R cells; type: cell-based, murine; conditions: Mus musculus, 72 hours
[2] = test system: 32Dcl3 cells expressing BCR-ABL H396P; experiment: Cell viability (trypan blue exclusion), BCR-ABL H396P cells; type: cell-based, murine; conditions: Mus musculus, 72 hours
[3] = test system: 32Dcl3 cells expressing BCR-ABL M244V; experiment: Cell viability (trypan blue exclusion), BCR-ABL M244V cells; type: cell-based, murine; conditions: Mus musculus, 72 hours
[4] = test system: 32Dcl3 cells expressing BCR-ABL Q252H; experiment: Cell viability (trypan blue exclusion), BCR-ABL Q252H cells; type: cell-based, murine; conditions: 72 hours
[5] = test system: 32Dcl3 cells expressing BCR-ABL M351T; experiment: Cell viability (trypan blue exclusion), BCR-ABL M351T cells; type: cell-based, murine; conditions: Mus musculus, 72 hours
[6] = test system: 32Dcl3 cells transfected to express wild-type or imatinib-resistant forms of BCR-ABL; experiment: Growth inhibition of the panel of cells expressing wild-type or imatinib-resistant forms of BCR-ABL; type: cell-based, murine
Procedure: (§2) The expression of the BCR-ABL proteins was determined by Western blot and kinase assays.
(§3) The total number of viable cells was determined by trypan blue exclusion at 72 hours post-treatment. The percent viable cells compared to vehicle-treated controls was determined.
(§4) The wild type comprises 32Dcl3.BCR-ABL cells that ectopically expressed the wild-type p210^BCR-ABL oncoprotein. The total number of viable cells was determined by trypan blue exclusion at 72 hours post-treatment. The percent viable cells compared to vehicle-treated controls was determined.

[7] = test system: 32Dcl3 cells expressing BCR-ABL T315I; experiment: Cell viability (trypan blue exclusion), BCR-ABL T315I cells
Procedure: (§5) Mutations corresponding to those published in the literature (Shah et al., Oncogene, 22, 7389-7395 (2003)) were introduced into the bcr-abl cDNA, which was then introduced into actively proliferating 32Dcl3 cells (Rovera et al., Oncogene 1, 29-35 (1987)) according to the following procedure.
as §2
(§6) Transfectants were selected in the absence of IL-3.
as §3, §4

CML K562 cells = experiment: Cell viability (trypan blue exclusion), K562 cells; type: cell-based
Procedure: K562 cells were maintained in RPMI (Roswell Park Memorial Institute) medium supplemented with 10% FBS and 1 U/ml penicillin-streptomycin.
(§1) Cell viability was then determined by trypan blue exclusion.

[8] = test system: 32Dcl3 cells expressing BCR-ABL E255V; experiment: Cell viability (trypan blue exclusion), BCR-ABL E255V cells
Procedure: as §5, §2, §6, §3, §4

[9] = test system: 32Dcl3 cells expressing BCR-ABL F359V; experiment: Cell viability (trypan blue exclusion), BCR-ABL F359V cells; type: cell-based, murine; conditions: Mus musculus, 72 hours
normal bone marrow cells = experiment: Hematopoietic colony formation assay; type: in vivo, CD-1 mice; conditions: 100 mg/kg intravenous; bone marrow cells extracted after 24 hrs
Procedure: To examine the effects of Compound 1 on normal hematopoietic cell population in vivo, a dose of 100 mg/kg of this compound in normal saline (or saline alone as a control) was injected intravenously (tail vein injection) into CD-1 mice (10 animals per group). The effect on the in vitro hematopoietic colony formation of normal bone marrow cells derived from these mice was determined 24 hrs following administration. Bone marrow cells were extracted from the mice after 24 hrs and 2×10^5 cells were plated on methylcellulose containing appropriate cytokines for lineage specific colony formation. Colonies were counted after 5 to 14 days of incubation.

[10] = test system: 32Dcl3 cells expressing BCR-ABL G250E; experiment: Cell viability (trypan blue exclusion), BCR-ABL G250E cells
Procedure: as §5, §2, §6, §3, §4

[11] = test system: 32Dcl3 cells expressing BCR-ABL L387M; experiment: Cell viability (trypan blue exclusion), BCR-ABL L387M cells
Procedure: as §2, §6, §3, §4

[12] = test system: 32Dcl3.BCR-ABL cells expressing wild-type p210 BCR-ABL; experiment: Cell viability (trypan blue exclusion), cells expressing wild-type BCR-ABL; type: cell-based, murine; conditions: for GI50: Mus musculus, 72 hours
Procedure: as §1
Cells expressing the wild-type p210^BCA-ABL oncoprotein (32Dcl3.BCR-ABL) or the BCR-ABL mutations G250E, T315I or M351T, were incubated with varying concentrations of Compound 4 ((E)-1-(2-(4-bromobenzylsulfonyl)vinyl)-2,4-difluorobenzene).

32D/BCR-ABL^T315I cells = experiment: In vivo growth of cells expressing imatinib-resistant BCR-ABL T315I (blood smears); set-up: species or system athymic nude mice; conditions: 100 mg/kg daily intraperitoneal; days 7 and 14; compared to vehicle and imatinib treated groups
Procedure: Blood smears on the treated mice were performed 7 and 14 days after the start of treatments. One drop of blood from each mouse was smeared onto glass slides, air dried and stained with modified Wright stain (Sigma). The T315I cells in the blood were easily visible due to their blue staining and size difference. The number of T315I cells per 10 fields was determined by counting 10 fields of view containing an equal density of red blood cells using a 40× objective on an upright Olympus microscope.

[13] = test system: 32Dcl3 cells expressing BCR-ABL E255K; experiment: Cell viability (trypan blue exclusion), BCR-ABL E255K cells
Procedure: as §2, §6, §3, §4

[14] = test system: 32Dcl3 cells expressing BCR-ABL F311L; experiment: Cell viability (trypan blue exclusion), BCR-ABL F311L cells
Procedure: as §5, §2, §6, §3, §4

[15] = test system: 32Dcl3 cells expressing BCR-ABL F317L; experiment: Cell viability (trypan blue exclusion), BCR-ABL F317L cells; type: cell-based, murine; conditions: Mus musculus, 72 hours
[16] = test system: 32Dcl3 cells expressing BCR-ABL Y253F; experiment: Cell viability (trypan blue exclusion), BCR-ABL Y253F cells
Procedure: as §5, §2, §6, §3, §4

[17] = test system: 32Dcl3 cells expressing BCR-ABL E355G; experiment: Cell viability (trypan blue exclusion), BCR-ABL E355G cells; type: cell-based, murine; conditions: Mus musculus, 72 hours
[18] = test system: 32Dcl3 cells expressing BCR-ABL Y253H; experiment: Cell viability (trypan blue exclusion), BCR-ABL Y253H cells; type: cell-based, murine; conditions: Mus musculus, 72 hours
[19] = Toxicity in treated mice (body weight, signs); conditions: 100 mg/kg daily intraperitoneal for 10 days
Procedure: Female athymic nude mice (ncr/ncr) were injected intravenously with 1×10^6 32Dcl3 cells expressing the mutant BCR-ABL^T315I via the tail vein.
Body weights of the test animals were taken every two days.

Question: With `COc1cc(OC)c(/C=C/S(=O)(=O)Cc2ccc(OC)c(NC(C)C(=O)O)c2)c(OC)c1` (centres unmarked) [Compound 1, (E)-2-(5-((2,4,6-trimethoxystyrylsulfonyl)methyl)-2-methoxyphenylamino) propanoic acid] as the compound, how does the GI50 [1] read?
Answer: 6.8 nM

Question: And the GI50 [2]?
Answer: 7.9 nM

Question: And the GI50 [3]?
Answer: 7.8 nM

Question: What about the LD50 [4] of the same compound?
Answer: 7.0 nM

Question: And the GI50 [5]?
Answer: 7.8 nM

Question: And the “sensitivity to growth inhibitory activity” value ([6]; all transfected cell lines, including T315I mutant, various concentrations, 72 hours)?
Answer: extremely sensitive

Question: And the LD50 ([7]; T315I, 72 hours)?
Answer: 7.5 nM

Question: What about the “concentration inhibiting proliferation, fold less than that shown for imatinib” value (CML K562 cells; BCR-ABL+ cell lines (K562 and 32Dcl3.BCR-ABL)) of the same compound?
Answer: 10 fold

Question: What about the “LD50 (loss of viability)” value (CML K562 cells; K562 cells, 72 hours incubation) of the same compound?
Answer: 10 to 15 nM

Question: And the LD50 ([8]; E255V, 72 hours)?
Answer: 7.8 nM

Question: And the GI50 [9]?
Answer: 7.1 nM

Question: What about the “colony formation of the erythroid, myeloid or lymphoid lineages” value (normal bone marrow cells) of the same compound?
Answer: No reduction in colony formation

Question: What about the LD50 ([10]; G250E, 72 hours) of the same compound?
Answer: 5.9 nM

Question: And the LD50 ([11]; L387M, 72 hours)?
Answer: 7.1 nM

Question: What about the “LD50 (loss of viability)” value ([12]; 32Dcl3.BCR-ABL cells, 72 hours incubation) of the same compound?
Answer: 10 to 15 nM

Question: And the GI50 ([12]; None (wt), trypan blue exclusion)?
Answer: 10 nM

Question: What about the “number of T315I cells in the blood” value (32D/BCR-ABL^T315I cells) of the same compound?
Answer: significantly reduced

Question: What about the LD50 ([13]; E255K, 72 hours) of the same compound?
Answer: 8.4 nM

Question: What about the LD50 ([14]; F311L, 72 hours) of the same compound?
Answer: 6.8 nM

Question: And the GI50 [15]?
Answer: 7.8 nM

Question: What about the LD50 ([16]; 72 hours) of the same compound?
Answer: 6.8 nM

Question: What about the GI50 [17] of the same compound?
Answer: 7.8 nM

Question: What about the GI50 [18] of the same compound?
Answer: 7.8 nM

Question: For `COc1cc(OC)c(/C=C/S(=O)(=O)Cc2ccc(OC)c(NCC(=O)O)c2)c(OC)c1` [Compound 2, (E)-2-(5-((2,4,6-trimethoxystyrylsulfonyl)methyl)-2-methoxyphenylamino) acetic acid], which “sensitivity to growth-inhibitory activity” value ([6]; cell lines listed in Table 2, 250 nM) is on record?
Answer: sensitive

Question: Which results are given for `COc1cc(OC)c(/C=C/S(=O)(=O)Cc2ccc(OC)c(NC(C)(C)C(=O)O)c2)c(OC)c1` [Compound 3, (E)-2-(5-((2,4,6-trimethoxystyryl-sulfonyl)methyl)-2-methoxyphenylamino)-2-methylpropanoic acid]?
Answer: GI50 [1]: 60 nM; GI50 [2]: 50 nM; GI50 ([4]; Mus musculus): 40 nM; GI50 [5]: 60 nM; sensitivity to growth-inhibitory activity ([6]; cell lines listed in Table 3, various concentrations, 72 hours): sensitive; GI50 ([7]; Mus musculus, 72 h): 60 nM; GI50 ([8]; Mus musculus, 72 h): 50 nM; GI50 [9]: 70 nM; GI50 ([10]; Mus musculus, 72 h): 25 nM; GI50 ([11]; Mus musculus, 72 h): 50 nM; GI50 ([12]; Wild-type): 40 nM; GI50 ([13]; Mus musculus, 72 h): 50 nM; GI50 ([14]; Mus musculus, 72 h): 70 nM; GI50 [15]: 60 nM; GI50 ([16]; 72 hours): 70 nM; GI50 ([16]; Mus musculus, 72 h): 40 nM; GI50 [17]: 50 nM; GI50 [18]: 30 nM

Question: With `O=S(=O)(/C=C/c1ccc(F)cc1F)Cc1ccc(Br)cc1` [Compound 4, (E)-1-(2-(4-bromobenzylsulfonyl)vinyl)-2,4-difluorobenzene] as the compound, how does the “sensitivity to growth-inhibitory activity” value ([6]; wild-type, G250E, T315I or M351T, varying concentrations, 72 hours) read?
Answer: sensitive

Question: For `Cc1ccc(NC(=O)c2ccc(CN3CCN(C)CC3)cc2)cc1Nc1nccc(-c2cccnc2)n1` [imatinib, Imatinib], which loss of bodyweight [19] is on record?
Answer: > 20%
